Key:
[1] = cited from earlier work; for treatment-induced myelosuppressive effect: clinical dosing, indisulam 700 mg/m^2 IV every 3 weeks, E7820 100 mg q.d. oral; for oral bioavailability: in vivo
[2] = target: T1, DDB1DB/DCAF15 and RBM39 R1R2 complex (Homo sapiens, UniProt Q14498+Q66K64); assay: DCAF15 RBM39 Complex Formation Assay (FRET); assay type: binding; conditions: FRET ratio Em 665/Em 615, incubated overnight at 4° C.
T1 construct: Amino acids 150 to 331 of RBM39 were cloned into pGEX4T3; GST (from vector pGEX4T3); TEV cleavage site (N); made in house; host or cells: DDB1DB/His-DCAF15: baculovirus/Sf9 co-expression; RBM39 R1R2: E. coli (pGEX4T3)
T1 sequence (Q66K64 whole entry, the tested form may be a part): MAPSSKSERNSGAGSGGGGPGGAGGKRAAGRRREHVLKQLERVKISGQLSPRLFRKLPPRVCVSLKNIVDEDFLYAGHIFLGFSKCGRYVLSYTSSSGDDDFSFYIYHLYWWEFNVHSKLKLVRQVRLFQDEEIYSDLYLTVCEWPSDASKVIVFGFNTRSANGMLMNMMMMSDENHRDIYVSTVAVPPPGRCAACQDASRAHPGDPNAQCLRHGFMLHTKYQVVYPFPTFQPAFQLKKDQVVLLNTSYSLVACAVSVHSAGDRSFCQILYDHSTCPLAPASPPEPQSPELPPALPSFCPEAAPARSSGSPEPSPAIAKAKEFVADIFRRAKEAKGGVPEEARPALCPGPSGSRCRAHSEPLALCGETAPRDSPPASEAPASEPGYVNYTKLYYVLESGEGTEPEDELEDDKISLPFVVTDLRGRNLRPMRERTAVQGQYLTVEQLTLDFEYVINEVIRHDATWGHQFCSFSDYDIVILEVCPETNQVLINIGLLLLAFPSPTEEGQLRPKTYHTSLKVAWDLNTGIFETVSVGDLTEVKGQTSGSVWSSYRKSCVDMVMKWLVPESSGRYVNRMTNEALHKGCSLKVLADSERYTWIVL
T1 sequence (Q14498 150-331): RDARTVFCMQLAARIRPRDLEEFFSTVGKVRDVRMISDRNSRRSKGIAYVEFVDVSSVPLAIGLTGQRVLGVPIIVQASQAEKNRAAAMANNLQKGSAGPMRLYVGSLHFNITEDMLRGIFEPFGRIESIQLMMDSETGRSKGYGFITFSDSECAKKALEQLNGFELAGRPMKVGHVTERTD
T1 sequence (Q16531 with tags, fused parts or gaps DEL396-708 partner): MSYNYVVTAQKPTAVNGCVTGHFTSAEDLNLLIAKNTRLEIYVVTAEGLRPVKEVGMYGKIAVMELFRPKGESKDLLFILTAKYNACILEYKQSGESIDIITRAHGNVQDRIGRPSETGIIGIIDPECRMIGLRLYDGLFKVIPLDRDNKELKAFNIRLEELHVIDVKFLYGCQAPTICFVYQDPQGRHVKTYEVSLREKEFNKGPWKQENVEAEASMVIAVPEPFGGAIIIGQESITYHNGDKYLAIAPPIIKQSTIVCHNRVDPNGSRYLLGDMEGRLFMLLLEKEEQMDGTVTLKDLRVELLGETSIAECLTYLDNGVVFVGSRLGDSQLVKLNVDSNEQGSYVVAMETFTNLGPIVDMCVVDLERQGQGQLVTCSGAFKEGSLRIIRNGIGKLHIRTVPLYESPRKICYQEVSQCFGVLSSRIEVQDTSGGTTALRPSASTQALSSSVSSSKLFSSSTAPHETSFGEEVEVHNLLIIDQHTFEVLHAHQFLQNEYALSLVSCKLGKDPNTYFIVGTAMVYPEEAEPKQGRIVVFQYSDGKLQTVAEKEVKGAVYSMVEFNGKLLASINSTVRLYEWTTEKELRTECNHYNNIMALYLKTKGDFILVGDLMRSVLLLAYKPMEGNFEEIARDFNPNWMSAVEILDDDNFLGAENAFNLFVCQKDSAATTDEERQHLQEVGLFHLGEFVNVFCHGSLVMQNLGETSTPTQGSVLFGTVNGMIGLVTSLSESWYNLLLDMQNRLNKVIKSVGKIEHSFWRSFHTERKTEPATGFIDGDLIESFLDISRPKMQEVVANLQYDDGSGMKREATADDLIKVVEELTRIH
Procedure, shortened: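 Ternary complex formation read by TR-FRET (Em 665/615, excitation 340 nm) after overnight incubation at 4° C of 20 nM baculovirus DDB1DB/His-DCAF15 and 50 nM E. coli RBM39 RRM1-RRM2 FLAG fragment with 14-point, 3-fold compound dilutions from 1 μM; EC50 from 4-parameter fit.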

[3] = tested on: HCT116 human colorectal carcinoma cells; assay: CellTiter-Glo Luminescent Cell Viability Assay; assay type: cell-based; conditions: HCT-116, 72 h, 3 days
Procedure, shortened: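 CellTiter-Glo luminescence gave viability after 3 days of compound exposure in HCT116 cells grown in DMEM/10% FBS. Final concentrations ran from 5 to 0.0002 […] in 1:3 steps, each in triplicate, with IC50 derived from the curves.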

[4] = tested on: HCT116 colorectal carcinoma cells; assay: In vivo efficacy study, HCT116 xenograft; set-up: species or system Athymic Nude mice; conditions: for Body Weight (g) Mean ± SEM / Tumor Volume (mm^3) Mean ± SEM / Tumor Weight (g) Mean ± SD: HCT116 xenograft mice; for body weight versus vehicle group / reduction of tumor volume and tumor weight: HCT116 mouse model, compound 3 100 mg/kg BID, compound 136 30 mg/kg BID, 12 days; for reduction of tumor volume and tumor weight: versus vehicle
From the text: Compound 3 were formulated with 10% absolute ethanol, 30% PEG400, 60% water containing 0.5% methyl cellulose and 0.5% Tween80®. 2×10^6 HCT116 colorectal carcinoma cells (ATCC® CCL-247) in PBS and Matrigel (1:1 in volume) were inoculated subcutaneously in the right flank of Athymic Nude mice at 6-7 weeks of age for tumor development. When the xenografts reached about 150 mm^3 in size, the tumor bearing mice were randomly grouped into six groups (n=6) and treated by oral gavage with vehicle (10% absolute ethanol, 30% PEG400, 60% water containing 0.5% methyl cellulose and 0.5% Tween80®, BID) or compound 3 at 100 mg/kg BID for 12 days. Tumor sizes were measured twice weekly in two dimensions using a caliper and the volume were expressed in mm^3 using the formula V=0.5×a×b^2 wherein a and b were the long and short diameters of the tumor, respectively. The efficacy study for compound 136 was carried out in the same manner as that of compound 3 except compound 136 was dosed at 30 mg/kg BID for 12 days.

[5] = cited from earlier work
[6] = 30 mg/kg BID oral gavage for 12 days
[7] = 100 mg/kg BID oral gavage for 12 days

IC50 [2]	EC50 [3]	Structure (SMILES)	other results
< 250 nM	< 250 nM	Cc1ccc(NS(=O)(=O)c2cnn([C@H](C)CO)c2N)c2[nH]cc(C#N)c12 [Compound 303, 5-amino-N-(3-cyano-4-methyl-1H-indol-7-yl)-1-[(1R)-2-hydroxy-1-methyl-ethyl]pyrazole-4-sulfonamide]	
< 250 nM	250 to 1000 nM	Cc1ccc(NS(=O)(=O)c2cn(C(C)(C)CO)nc2Cl)c2[nH]cc(C#N)c12 [Compound 252, 3-chloro-N-(3-cyano-4-methyl-1H-indol-7-yl)-1-(2-hydroxy-1,1-dimethyl-ethyl)pyrazole-4-sulfonamide]	
< 250 nM	< 250 nM	CC(C)(CO)n1ncc(S(=O)(=O)Nc2ccc(Cl)c3c(C#N)c[nH]c23)c1Cl [Compound 250, 5-chloro-N-(4-chloro-3-cyano-1H-indol-7-yl)-1-(2-hydroxy-1,1-dimethyl-ethyl)pyrazole-4-sulfonamide]	
< 250 nM	< 250 nM	Cc1ccc(NS(=O)(=O)c2cnn(C[C@@H](C)CO)c2)c2[nH]cc(C#N)c12 [Compound 264, N-(3-cyano-4-methyl-1H-indol-7-yl)-1-[(2R)-3-hydroxy-2-methyl-propyl]pyrazole-4-sulfonamide]	
< 250 nM	> 1000 nM	N#Cc1c[nH]c2c(NS(=O)(=O)c3cnn(CC4(F)CNC4)c3)ccc(Cl)c12 [Compound 256, N-(4-chloro-3-cyano-1H-indol-7-yl)-1-[(3-fluoroazetidin-3-yl)methyl]pyrazol-4-sulfonamide]	
< 250 nM	250 to 1000 nM	N#Cc1c[nH]c2c(NS(=O)(=O)c3cnn(C4(CO)CC4)c3)ccc(Cl)c12 [Compound 269, N-(4-chloro-3-cyano-1H-indol-7-yl)-1-[1-(hydroxymethyl)cyclopropyl]pyrazole-4-sulfonamide]	
< 250 nM	250 to 1000 nM	Cc1ccc(NS(=O)(=O)c2cnn(CC3(F)CN(C(=O)OC(C)(C)C)C3)c2)c2[nH]cc(C#N)c12 [Compound 255, tert-butyl 3-[[4-[(3-cyano-4-methyl-1H-indol-7-yl)sulfamoyl]pyrazol-1-yl]methyl]-3-fluoro-azetidine-1-carboxylate]	
< 250 nM	250 to 1000 nM	Cc1ccc(NS(=O)(=O)c2cnn(CF)c2)c2[nH]nc(C#N)c12 [Compound 305, N-(3-cyano-4-methyl-1H-indazol-7-yl)-1-(fluoromethyl)pyrazole-4-sulfonamide]	

The remaining lines, values behind:

Structure (SMILES)	IC50 [2]	EC50 [3]	other results
NS(=O)(=O)c1ccc(S(=O)(=O)Nc2cccc3c(Cl)c[nH]c23)cc1 [Indisulam, indisulam]			treatment-induced myelosuppressive effect [1]: treatment-induced myelosuppressive effect; oral bioavailability [1]: poor oral bioavailability
CC(C)(O)Cn1cc(S(=O)(=O)Nc2ccc(Cl)c3c(C#N)c[nH]c23)cn1 [Compound 136, N-(4-chloro-3-cyano-1H-indol-7-yl)-1-(2-hydroxy-2-methyl-propyl)pyrazole-4-sulfonamide]	< 250 nM	250 to 1000 nM	Body Weight (g) Mean ± SEM [4, 6]: 21.4 ± 0.14 g; Tumor Volume (mm^3) Mean ± SEM [4, 6]: 175.7 ± 12.3 mm^3; Tumor Weight (g) Mean ± SD [4, 6]: .083 ± 0.06 g; body weight versus vehicle group [4]: no significant difference; reduction of tumor volume and tumor weight [4]: statistically significant reduction
Cc1ccc(NS(=O)(=O)c2cccc(C#N)c2)c2[nH]cc(C#N)c12 [Compound E7820, E7820]			measured drug concentration available (free drug) ([5]; according to the free drug principle): less than 1%; plasma protein binding [5]: greater than 99%; treatment-induced myelosuppressive effect [1]: same myelosuppressive effects; oral bioavailability [1]: good oral bioavailability
Cc1ccc(NS(=O)(=O)c2cnn(C)c2)c2[nH]cc(C#N)c12 [Compound 3, N-(3-cyano-4-methyl-1H-indol-7-yl)-1-methyl-pyrazole-4-sulfonamide]	< 250 nM	250 to 1000 nM	Body Weight (g) Mean ± SEM [4, 7]: 22.44 ± 0.16 g; Tumor Volume (mm^3) Mean ± SEM [4, 7]: 122.9 ± 33.9 mm^3; Tumor Weight (g) Mean ± SD [4, 7]: .013 ± 0.005 g; body weight versus vehicle group [4]: no significant difference; reduction of tumor volume and tumor weight [4]: statistically significant reduction
Cc1ccc(NS(=O)(=O)c2cnn(CC3CC3(F)F)c2)c2[nH]cc(C#N)c12 (stereo not drawn) [Compound 79, N-(3-cyano-4-methyl-1H-indol-7-yl)-1-[(2,2-difluorocyclopropyl)methyl]pyrazole-4-sulfonamide]	< 250 nM	250 to 1000 nM	
O=S(=O)(Nc1cccc2c(Cl)c[nH]c12)c1cnn(-c2ccc(C(F)(F)F)cn2)c1 [Compound 30, N-(3-chloro-1H-indol-7-yl)-1-[5-(trifluoromethyl)-2-pyridyl]pyrazole-4-sulfonamide]	> 1000 nM	> 1000 nM	
Cc1ccc(NS(=O)(=O)c2cnn(C3CCN(CC(F)(F)F)CC3)c2)c2[nH]cc(C#N)c12 [Compound 87, N-(3-cyano-4-methyl-1H-indol-7-yl)-1-[1-(2,2,2-trifluoroethyl)-4-piperidyl]pyrazole-4-sulfonamide]	< 250 nM	> 1000 nM	
Cn1cc(S(=O)(=O)Nc2cccc3c(Cl)c[nH]c23)cn1 [Compound 1, N-(3-chloro-1H-indol-7-yl)-1-methyl-1H-pyrazole-4-sulfonamide]	< 250 nM	250 to 1000 nM	
N#Cc1c[nH]c2c(NS(=O)(=O)c3cn[nH]c3)ccc(Cl)c12 [Compound 121, N-(4-chloro-3-cyano-1H-indol-7-yl)-1H-pyrazole-4-sulfonamide]	< 250 nM	250 to 1000 nM	
Cc1ccc(NS(=O)(=O)c2cnn(C(C)C)c2)c2[nH]cc(C#N)c12 [Compound 63, N-(3-cyano-4-methyl-1H-indol-7-yl)-1-isopropyl-pyrazole-4-sulfonamide]	< 250 nM	250 to 1000 nM	
Cc1ccc(NS(=O)(=O)c2cnn(C(C)CC(C)(C)O)c2)c2[nH]cc(C#N)c12 (stereo not drawn) [Compound 242, N-(3-cyano-4-methyl-1H-indol-7-yl)-1-(3-hydroxy-1,3-dimethyl-butyl)pyrazole-4-sulfonamide]	< 250 nM	< 250 nM	
N#Cc1c[nH]c2c(NS(=O)(=O)c3cnn(C4COC4)c3)ccc(Cl)c12 [Compound 125, N-(4-chloro-3-cyano-1H-indol-7-yl)-1-(oxetan-3-yl)pyrazole-4-sulfonamide]	< 250 nM	250 to 1000 nM	
O=S(=O)(Nc1ccc(Cl)c2c(Cl)c[nH]c12)c1cn[nH]c1 [Compound 159, N-(3,4-dichloro-1H-indol-7-yl)-1H-pyrazole-4-sulfonamide]	< 250 nM	< 250 nM	
N#Cc1c[nH]c2c(NS(=O)(=O)c3cnn(C4CCNC4=O)c3)ccc(Cl)c12 (stereo not drawn) [Compound 147, N-(4-chloro-3-cyano-1H-indol-7-yl)-1-(2-oxopyrrolidin-3-yl)pyrazole-4-sulfonamide]	< 250 nM	> 1000 nM	
CC(C)(CO)n1cc(S(=O)(=O)Nc2ccc(Cl)c3c(Cl)c[nH]c23)cn1 [Compound 170, N-(3,4-dichloro-1H-indol-7-yl)-1-(2-hydroxy-1,1-dimethyl-ethyl)pyrazole-4-sulfonamide]	< 250 nM	250 to 1000 nM	
CC(C)(C)OC(=O)N1CC(n2cc(S(=O)(=O)Nc3cccc4c(Cl)c[nH]c34)cn2)C1 [Compound 12, tert-butyl 3-[4-[(3-chloro-1H-indol-7-yl)sulfamoyl]pyrazol-1-yl]azetidine-1-carboxylate]	< 250 nM	250 to 1000 nM	

From US20250368627A1, “PYRAZOLESULFONAMIDES AS ANTITUMOR AGENTS” (Peloton Therapeutics, Inc., a fully owned subsidiary of …, priority 2019, published 2025)
